Reference: patent publication US9561288B2, “Combinations and modes of administration of therapeutic agents and combination therapy” (Abraxis BioScience, LLC, priority 2005, dated 2017)

How the values were obtained:
[1] = test system: Abraxane®-treated cells; experiment: In vitro cellular cytotoxicity assay with VEGF-A or Avastin®; type: cell-based; details: Abraxane® 1 to 24 nM
Experimental: Cells were treated with Abraxane® in a range of concentrations (1 to 24 nM).

[2] = test system: Abraxane®-treated cells; experiment: In vitro clonogenic assay; type: cell-based
Experimental: Cells were treated with saline control, Abraxane® alone, VEGF-A alone, Avastin® alone, Abraxane®+VEGF-A or Abraxane®+Avastin®.

[3] = test system: Luciferase-expressing MDA-MB-231 human breast cancer xenografts; experiment: Luciferase-expressing MDA-MB-231 xenografts, tumor growth (Example 26); type: in vivo, nude (nu/nu) mice
Experimental: Abraxane®, either alone or in combination, was administered at 10 mg/kg/day daily for 5 days in two cycles separated by 1 week. […] Mice were monitored for tumor growth and drug toxicity. Mice were sacrificed when the mean tumor volume in the saline-treated control group reached 2000 mm^3.
Tumor growth inhibition (TGI) was calculated by comparing mean tumor volume of test groups to that of the control group at the last measurement of the control group.

[4] = test system: MDA-MB-231-Luc+ human breast cancer xenografts; experiment: MDA-MB-231-Luc+ xenografts, one or two cycles of Abraxane® with Avastin® (Example 29); type: in vivo, nude (nu/nu) mice; details: for % Complete Regression: day 65
Experimental: One or two cycles of Abraxane® were administered. In two-cycle Abraxane® treatment, a second cycle of Abraxane® (10 mg/kg, i.v. qd×5) was administered one week after conclusion of the first cycle.

[5] = test system: MDA-MB-435-Luc+ tumors; experiment: MDA-MB-435-Luc+ tumor growth (Example 31); type: in vivo, ICR SCID mice
Experimental: MDA-MB-435-Luc+ (“435-Luc+”) cells were implanted subcutaneously into the mammary fat pad of 4 to 6 week old female ICR SCID mice (Taconic, Hudson, N.Y.). Every 2-3 days, perpendicular tumor diameters were measured by digital caliper and used to calculate tumor volume according to the formula: volume=Dd^2π/6, where D=larger diameter and d=smaller diameter. […] Animal care was in accordance with institutional guidelines.
Two cycles of Abraxane® treatment were administered, each for 5 consecutive days with one week of rest between cycles. […] To allow maximal development of metastatic foci, mice were sacrificed when the average tumor volume in the control group reached 2000 mm^3.

[6] = test system: lymph node metastasis of MDA-MB-435-Luc+; experiment: MDA-MB-435-Luc+ lymph node metastasis; type: in vivo, ICR SCID mice; details: ABX 10 mg/kg two cycles; Avastin® 4 mg/kg
Experimental: Two cycles of Abraxane® treatment were administered, each for 5 consecutive days with one week of rest between cycles. […] The control group received PBS injected i.v. or i.p. […] Lymph nodes and lungs were excised, washed in PBS, and homogenized in 0.35 ml of cold CCLR buffer (Promega, Madison, Wis.) containing a protease inhibitor cocktail and PMSF (Sigma, Mo.). Cell debris was removed by centrifugation. Protein concentrations of cleared lysates were determined by Bradford assay (Bio-Rad, Hercules, Calif.). […] CCLR buffer without tissue homogenates and lymph nodes or lungs of non-tumor bearing mice were assayed for background signal and subtracted from the results. The net results were expressed as relative light units (“RLU”) normalized per mg of total lysate protein. […] This value was chosen because it was the minimal signal reproducibly detected above background in metastatic tissues, independently confirmed by immunohistochemical detection (data not shown). Differences in lymph node and lung metastases were assessed for statistical significance by Fisher's exact test using GraphPad InStat (GraphPad Inc., San Diego, Calif.) or SPSS 14.0 (SPSS, Inc., Chicago, Ill.).

[7] = test system: pulmonary metastasis of MDA-MB-435-Luc+; experiment: MDA-MB-435-Luc+ pulmonary metastasis; type: in vivo, ICR SCID mice; details: ABX 10 mg/kg two cycles; Avastin® 4 mg/kg
Experimental: Tumor metastasis was determined by measuring luciferase activity in tissue extracts derived from 10 axillary lymph nodes (“LN”) and both lobes of the lungs. Lymph nodes and lungs were excised, washed in PBS, and homogenized in 0.35 ml of cold CCLR buffer (Promega, Madison, Wis.) containing a protease inhibitor cocktail and PMSF (Sigma, Mo.). Cell debris was removed by centrifugation. Protein concentrations of cleared lysates were determined by Bradford assay (Bio-Rad, Hercules, Calif.). Fifty μl of Luciferase Assay Reagent (Promega, Madison, Wis.) was mixed with 10 μl of cleared lysate and a 10 second average of luminescence was detected using a single tube luminometer (Berthold, Germany). […] The net results were expressed as relative light units (“RLU”) normalized per mg of total lysate protein. […] Differences in lymph node and lung metastases were assessed for statistical significance by Fisher's exact test using GraphPad InStat (GraphPad Inc., San Diego, Calif.) or SPSS 14.0 (SPSS, Inc., Chicago, Ill.).

[8] = test system: MDA-MB-231-Luc+ lymphatic and pulmonary metastases; experiment: Lymphatic and pulmonary metastasis of well-established 231-Luc+ tumors (Example 32); type: in vivo, nu/nu mice; details: Abraxane® 30 mg/kg qd×5; Avastin® 4 mg/kg q2×wkly; tumors ~460 mm^3
Experimental: MDA-MB-231 or 231-Luc^+ cells were implanted into the MFP of 4 to 6 week old female nu/nu mice (Harlan Sprague-Delaney, Indianapolis, Ind.) by standard methods. Briefly, mice were anesthetized and 100 μl of cell suspension containing 4×10^6 cells and 50% Matrigel (Sigma, Mo.) were injected into the MFP. Every 2-3 days, perpendicular tumor diameters were measured by digital caliper and used to calculate tumor volume according to the formula: Volume=Dd^2π/6, where D=larger diameter and d=smaller diameter. […] Animal care was in accordance with institutional guidelines.
Luciferase-expressing orthotopic MDA-MB-231 (231-Luc+) xenografts were grown to well-established tumors (˜460 mm^3) and randomized to four groups of N=5, 6 or 7.
Metastases of MDA-MB-231-Luc+ tumor cells were identified by measuring luciferase activity in tissue extracts from lymph nodes and lungs, as described in Example 31 above. […] This value was chosen because it represented the minimal signal which could be reproducibly detected above background in tissues in which metastases were independently confirmed by immunohistochemical detection of human cells. The net results were expressed as relative light units (RLU) normalized per mg of total lysate protein, and are presented in FIG. 17A (lymphatic metastasis) and FIG. 17B (pulmonary metastasis).

[9] = test system: VEGF-A protein; experiment: VEGF-A protein in tumor extracts by ELISA
Experimental: All drugs and control saline were administered i.v. in a volume of 100 μl daily for 5 days. Mice were sacrificed, tumors were harvested and tumor cellular extracts were prepared. VEGF-A protein levels in tumor extracts were determined by ELISA.

[10] = test system: MDA-MB-231 human breast cancer xenografts; experiment: MDA-MB-231 xenografts: tumor growth, necrosis, hypoxia (Example 24); details: i.v. qdx5; Taxol® 10, Abraxane® 15, Doxorubicin 10 mg/kg/day
[11] = test system: MDA-MB-435 human breast tumor xenografts; experiment: MDA-MB-435 human tumor xenografts treated with HKP, Abraxane® or both; type: in vivo, mice; details: nineteen weeks; HKP 250 ug i.v. weekly x16; Abraxane® 10 mg/kg/day i.v. x5 days
Experimental: Methods: MDA-MB-435 human tumor xenografts were established at an average tumor volume of 100 mm^3, mice were randomized into groups of 12-13 animals and treated with HKP, Abraxane®, or HKP and Abraxane®. HKP was delivered i.v. (250 ug), once a week, for 16 weeks. Abraxane® was administered i.v., daily for 5 days at 10 mg/kg/day only for the first week of treatment. The Abraxane® dose used was substantially below its MTD (30 mg/kg/day, qd×5) to prevent the tumor from complete regression so effect of HKP could be noted.

[12] = test system: MCF7-S breast carcinoma; experiment: Cytotoxic activity in MCF7-S; type: cell-based, human
[13] = test system: MCF7-R (pgp+) multidrug resistant variant
Experimental: (§1) Its cytotoxicity was also assessed against the NCI-60 human tumor cell line panel.

[14] = test system: NCI-60 human tumor cell line panel; experiment: NCI-60 human tumor cell line panel; type: cell-based; details: NCI 60 panel
Experimental: as §1

[15] = Experiment No. 1: one cycle, Avastin® 2 mg/kg
[16] = Experiment No. 2: two cycles, Avastin® 4 mg/kg

Avastin®: anti-VEGF antibody bevacizumab
effect of addition on in vitro cytotoxicity of Abraxane® [1]: increased the in vitro cytotoxicity of Abraxane®
number of colonies formed [2]: slight reduction in the number of colonies formed
% TGI ([3]; Abraxane® 10 mg/kg/day two cycles, Avastin® 4 mg/kg): 12.56%
Mean Tumor Volume ([3]; Abraxane® 10 mg/kg/day x5 days, two cycles, Avastin® 4 mg/kg twice a week for 6 weeks): 2089 ± 251 mm^3
% Complete Regression ([3]; day 65, Abraxane® two cycles, Avastin® 4 mg/kg): 0%
Mean Tumor Volume ([4]; Experiment No. 1: one cycle of Abraxane® 10 mg/kg, Avastin® 2 mg/kg): 953 ± 127 mm^3
% TGI [4, 15]: 54.16%
% Complete Regression [4, 15]: 0%
% TGD ([4]; Experiment No. 1: one cycle, Avastin® 2 mg/kg, time to 1000 mm^3 vs control): 13%
Mean Tumor Volume ([4]; Experiment No. 2: two cycles of Abraxane® 10 mg/kg, Avastin® 4 mg/kg): 2089 ± 251 mm^3
% TGD [4, 16]: 7%
% TGI [4, 16]: 12.56%
% Complete Regression [4, 16]: 0%
% Complete Regressions ([5]; 92 days): 0%
tumor volume ([5]; ABX 10 mg/kg i.v. qd×5 two cycles, Avastin® 4 mg/kg i.p. twice a week): 792 mm^3
% TGI ([5]; ABX 10 mg/kg two cycles, Avastin® 4 mg/kg): 60.79%
Lymph node metastasis % Inhibition vs. Control [6]: 100%
Pulmonary metastasis % Inhibition vs. Control [7]: 50%
lymphatic and pulmonary metastases [8]: failed to prevent metastasis

COc1cccc2c1C(=O)c1c(O)c3c(c(O)c1C2=O)C[C@@](O)(C(=O)CO)C[C@@H]3O[C@H]1C[C@H](N)[C@H](O)[C@H](C)O1 [Doxorubicin]
VEGF-A ([9]; tumor extracts, i.v. qdx5): 754 ± 49 pg/mg protein
increase in VEGF-A protein levels ([9]; vs saline control): 124%
% TGI [10]: 45%
Mean Tumor Volume [10]: 287 ± 56 mm^3

CNGRC-GG-d(KLAKLAK)2 [HKP]
tumor volume [11]: 4,372 mm^3

COc1cc2c(c(OC)c1OC)-c1ccc(SC)c(=O)cc1[C@@H](NC(=O)CCNC(=O)N[C@H]1CCc3cc(OC)c(OC)c(OC)c3-c3ccc(SC)c(=O)cc31)CC2 [IDN5404]
IC50 [12]: 0.0017 ± 0.0001 µM
fold resistance MCF7-R vs MCF7-S [13]: > 10 fold
IC50 ([13]; MCF7-R): 0.04 ± 0.0038 µM
IC50 [14]: < 0.01 µM
